The results in this text go back to patent publication US8642640B2, “1-phenylpyrrole derivatives” (Exelixis, Inc., priority 2008, dated 2014).

The target in this assay is T1, human mineralocorticoid receptor (hMR) (Homo sapiens, UniProt P08235).
T1 construct: expressed in transfected cells; host or cells: HEK293
T1 sequence (P08235 726-964 limits assumed): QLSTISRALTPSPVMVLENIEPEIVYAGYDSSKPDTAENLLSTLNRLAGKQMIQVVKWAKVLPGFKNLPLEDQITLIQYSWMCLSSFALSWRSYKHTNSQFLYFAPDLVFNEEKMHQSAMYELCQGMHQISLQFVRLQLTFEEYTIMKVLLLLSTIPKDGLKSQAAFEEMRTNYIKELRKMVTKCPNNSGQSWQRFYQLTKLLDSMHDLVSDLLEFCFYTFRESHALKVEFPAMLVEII
Nature of the assay: GAL4-hMR-LBD luciferase reporter assay in HEK293 cells with 1 nM aldosterone (Test Example 1).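 As to Imax: 0% is DMSO-only control and 100% is 1 nM aldosterone alone.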 The format is cell-based. The following applies: for Emax: HEK293, read-out: Imax; for IC50: concentration showing Imax/2, HEK293, GAL4-hMR-LBD, 1 nM aldosterone, overnight, read-out: ICmax50. The procedure: A plasmid pM-hMR-LBD expressing GAL4-hMR receptor, which has a ligand binding domain (LBD, corresponding to approximately 308 amino acids at the carboxy terminus) of human mineralocorticoid receptor (hMR, NM_000901) bonded to a DNA binding domain of yeast transcription factor GAL4 (corresponding to 147 amino acids at the amino terminus), was prepared. Reporter assay was conducted by using a reporter plasmid (such as plasmid pFR-Luc of […] CLONING SYSTEMS) including a luciferase gene, having a sequence (UAS sequence) which binds to the DNA binding domain of GAL4.
The plasmid pM-hMR-LBD and the reporter plasmid as obtained above were gene transferred into renal cell line HEK293 of human fetus by lipofection. On the next day, cells were collected by trypsin treatment, and dispensed with DMEM culture medium containing 5% of FBS treated by activated charcoal, to a white 96-well plate (Costar) with the amount of 95 microliter per well.
The test compounds were used as dissolved in dimethyl sulfoxide at a predetermined concentration, and the test compounds suitably diluted with culture media were added to the cells on the white 96-well plate so that the final concentration becomes 0.1%. […] After the addition, cultivation was carried out overnight.
On the next day, the culture media was removed, and then luciferase substrate (Wako Pure Chemical Industries, Ltd.) was prepared in accordance with the attached document and were added to each well by 50 microliters. Stirring was conducted for approximately 30 minutes, and the amount of luminescence was measured for each well by using Analyst (Molecular Devices), to obtain luciferase activity. A graph which plots relative luciferase activity values, when the luciferase activity value of Control group 1 was taken as 0% and the luciferase activity value of Control group 2 was taken as 100%, for each of the amount of the test compound addition group was made.
Background: In a reporter assay the amount or activity of a reporter protein is the signal.

`Cc1c(C(=O)Nc2ccc(S(C)(=O)=O)cc2)cc(C[C@H](C)O)n1-c1ccc(Cl)cc1Oc1ccc(F)cc1` (single isomer, unassigned) [Example 45 - isomer A]: the Emax was 105% and the IC50 amounted to 1.9 nM. Consider `Cc1c(C(=O)Nc2ccc(S(C)(=O)=O)cc2)cc(C[C@H](C)O)n1-c1ccc(Cl)cc1Oc1ccc(F)cc1` (single isomer, unassigned) [Example 45 - isomer B], for which the IC50 is over 1000 nM.

On to `Cc1c(C(=O)Nc2ccc(S(N)(=O)=O)c(Cl)c2)cc(C[C@H](C)O)n1-c1ccc(F)cc1Cl` (single isomer, unassigned) [Example 49 - isomer A], for which the IC50 was over 1000 nM.

Regarding `Cc1c(C(=O)Nc2ccc(S(N)(=O)=O)c(Cl)c2)cc(C[C@H](C)O)n1-c1ccc(F)cc1Cl` (single isomer, unassigned) [Example 49 - isomer B], the Emax was 104% and the IC50 amounted to 4.5 nM.

On to `Cc1c(C(=O)Nc2ccc(S(C)(=O)=O)cc2)cc(C[C@H](C)O)n1-c1ccc(Cl)cc1-c1ccc(F)cc1` (single isomer, unassigned) [Example 50 - isomer A], for which the IC50 is over 1000 nM.

For the molecule `Cc1c(C(=O)Nc2ccc(S(C)(=O)=O)cc2)cc(C[C@H](C)O)n1-c1ccc(Cl)cc1-c1ccc(F)cc1` (single isomer, unassigned) [Example 50 - isomer B], the Emax came to 104% and the IC50 turned out to be 1.2 nM.

As for `Cc1cc(Cl)ccc1-n1c(CCF)cc(C(=O)Nc2ccc(S(C)(=O)=O)cc2)c1C` (single isomer, unassigned) [Example 51 - isomer B, 1-(4-Chloro-2-methylphenyl)-5-(2-fluoroethyl)-2-methyl-N-[4-(methylsulfonyl)phenyl]-1H-pyrrole-3-carboxamide], the IC50 was over 1000 nM. On the same count and under the same terms, with `Cc1c(C(=O)Nc2ccc(S(C)(=O)=O)cc2)cc(CCF)n1-c1ccc(F)cc1OC(F)F` (single isomer, unassigned) [Example 54 - isomer B, 1-[2-(Difluoromethoxy)-4-fluorophenyl]-5-(2-fluoroethyl)-2-methyl-N-[4-(methylsulfonyl)phenyl]-1H-pyrrole-3-carboxamide] the figure was over 1000 nM. `Cc1c(C(=O)Nc2ccc(S(C)(=O)=O)cc2)cc(CCO)n1-c1ccc(Cl)cc1C(F)(F)F` [Example 1, 1-[4-Chloro-2-(trifluoromethyl)phenyl]-5-(2-hydroxyethyl)-2-methyl-N-[4-(methylsulfonyl)phenyl]-1H-pyrrole-3-carboxamide]: the Emax is 110% and the IC50 stood at 11 nM. For `Cc1c(C(=O)Nc2ccc(S(C)(=O)=O)cc2)cc(CCO)n1-c1ccc(F)cc1Cl` [Example 3, 1-(2-Chloro-4-fluorophenyl)-5-(2-hydroxyethyl)-2-methyl-N-[4-(methylsulfonyl)phenyl]-1H-pyrrole-3-carboxamide], the Emax was 109% and the IC50 stood at 30 nM.

With `Cc1c(C(=O)Nc2ccc(S(C)(=O)=O)cc2)cc(C[C@H](C)O)n1-c1ccc(F)cc1C(F)(F)F` [Example 5, 1-[4-Fluoro-2-(trifluoromethyl)phenyl]-5-[(2S)-2-hydroxypropyl]-2-methyl-N-[4-(methylsulfonyl)phenyl]-1H-pyrrole-3-carboxamide], the Emax is 125% and the IC50 was 3.9 nM. As to `Cc1c(C(=O)Nc2ccc(S(C)(=O)=O)cc2)cc(C[C@H](C)O)n1-c1ccc(Cl)cc1C(F)(F)F` [Example 6, 1-[4-Chloro-2-(trifluoromethyl)phenyl]-5-[(2S)-2-hydroxypropyl]-2-methyl-N-[4-(methylsulfonyl)phenyl]-1H-pyrrole-3-carboxamide], the Emax is 92% and the IC50 is 6.2 nM. In the same order, the values of `Cc1c(C(=O)Nc2ccc(S(C)(=O)=O)cc2)cc(C[C@H](C)O)n1-c1ccc(F)cc1OC(F)F` [Example 9, 1-[2-(Difluoromethoxy)-4-fluorophenyl]-5-[(2S)-2-hydroxypropyl]-2-methyl-N-[4-(methylsulfonyl)phenyl]-1H-pyrrole-3-carboxamide] are 114% and 41 nM. In the case of `Cc1c(C(=O)Nc2ccc(S(C)(=O)=O)cc2)cc(C[C@H](C)O)n1-c1ccc(Cl)cc1OC(F)F` [Example 11, 1-[4-Chloro-2-(difluoromethoxy)phenyl]-5-[(2S)-2-hydroxypropyl]-2-methyl-N-[4-(methylsulfonyl)phenyl]-1H-pyrrole-3-carboxamide], the Emax stood at 107% and the IC50 was 13 nM.

For `Cc1c(C(=O)Nc2ccc(S(N)(=O)=O)c(Cl)c2)cc(C[C@H](C)O)n1-c1ccc(F)cc1C(F)(F)F` [Example 12, N-[4-(Aminosulfonyl)-3-chlorophenyl]-1-[4-fluoro-2-(trifluoromethyl)phenyl]-5-[(2S)-2-hydroxypropyl]-2-methyl-1H-pyrrole-3-carboxamide], the Emax was determined as 108% and the IC50 was determined as 6.8 nM. As for `Cc1c(C(=O)Nc2ccc(S(C)(=O)=O)cc2)cc(C[C@H](C)O)n1-c1ccc(F)cc1OC(F)(F)F` [Example 16, 1-[4-Fluoro-2-(trifluoromethoxy)phenyl]-5-[(2S)-2-hydroxypropyl]-2-methyl-N-[4-(methylsulfonyl)phenyl]-1H-pyrrole-3-carboxamide], the Emax was found to be 94% and the IC50 is 7.8 nM. Regarding `Cc1cc(NC(=O)c2cc(C[C@H](C)O)n(-c3ccc(F)cc3OC(F)F)c2C)ccc1S(C)(=O)=O` [Example 22, 1-[2-(Difluoromethoxy)-4-fluorophenyl]-5-[(2S)-2-hydroxypropyl]-2-methyl-N-[3-methyl-4-(methylsulfonyl)phenyl]-1H-pyrrole-3-carboxamide], the Emax was 111% and the IC50 turned out to be 9.1 nM. In the same order, the values of `Cc1c(C(=O)Nc2ccc(S(C)(=O)=O)cc2)cc(C[C@H](C)O)n1-c1ccc(F)cc1Cl` [Example 40, 1-(2-Chloro-4-fluorophenyl)-5-[(2S)-2-hydroxypropyl]-2-methyl-N-[4-(methylsulfonyl)phenyl]-1H-pyrrole-3-carboxamide] are 112% and 26 nM. In the same order, the values of `Cc1c(C(=O)Nc2ccc(S(C)(=O)=O)cc2)cc(C[C@H](C)O)n1-c1ccc(Cl)cc1OC(F)(F)F` [Example 42, 1-[4-Chloro-2-(trifluoromethoxy)phenyl]-5-[(2S)-2-hydroxypropyl]-2-methyl-N-[4-(methylsulfonyl)phenyl]-1H-pyrrole-3-carboxamide] are 110% and 4.8 nM.

With `Cc1c(C(=O)Nc2ccc(S(C)(=O)=O)cc2)cc(C[C@H](C)O)n1-c1ccc(Cl)cc1Cl` [Example 43, 1-(2,4-Dichlorophenyl)-5-[(2S)-2-hydroxypropyl]-2-methyl-N-[4-(methylsulfonyl)phenyl]-1H-pyrrole-3-carboxamide], the Emax was determined as 100% and the IC50 worked out at 40 nM. In the same order, the values of `CCc1c(C(=O)Nc2ccc(S(C)(=O)=O)cc2)cc(C[C@H](C)O)n1-c1ccc(F)cc1Cl` [Example 44, 1-(2-Chloro-4-fluorophenyl)-2-ethyl-5-[(2S)-2-hydroxypropyl]-N-[4-(methylsulfonyl)phenyl]-1H-pyrrole-3-carboxamide] are 111% and 24 nM. The matching figures for `Cc1c(C(=O)Nc2ccc(S(C)(=O)=O)cc2)cc(C[C@H](C)O)n1-c1ccc(Cl)cc1Oc1ccc(F)cc1` [Example 45, 1-[4-Chloro-2-(4-fluorophenoxy)phenyl]-5-[(2S)-2-hydroxypropyl]-2-methyl-N-[4-(methylsulfonyl)phenyl]-1H-pyrrole-3-carboxamide]: 85% and 7.1 nM. For `Cc1c(C(=O)Nc2ccc(S(N)(=O)=O)c(Cl)c2)cc(C[C@H](C)O)n1-c1ccc(F)cc1Cl` [Example 49, N-[4-(Aminosulfonyl)-3-chlorophenyl]-1-(2-chloro-4-fluorophenyl)-5-[(2S)-2-hydroxypropyl]-2-methyl-1H-pyrrole-3-carboxamide], the Emax came out at 96% and the IC50 came out at 8.3 nM. In the same order, the values of `Cc1c(C(=O)Nc2ccc(S(C)(=O)=O)cc2)cc(C[C@H](C)O)n1-c1ccc(Cl)cc1-c1ccc(F)cc1` [Example 50, 1-(5-Chloro-4′-fluorobiphenyl-2-yl)-5-[(2S)-2-hydroxypropyl]-2-methyl-N-[4-(methylsulfonyl)phenyl]-1H-pyrrole-3-carboxamide] are 114% and 2.7 nM. On to `Cc1cc(Cl)ccc1-n1c(CCF)cc(C(=O)Nc2ccc(S(C)(=O)=O)cc2)c1C` [Example 51, 1-(4-Chloro-2-methylphenyl)-5-(2-fluoroethyl)-2-methyl-N-[4-(methylsulfonyl)phenyl]-1H-pyrrole-3-carboxamide], for which the Emax was 115% and the IC50 came to 19 nM.
